The values below come from patent US10308608B2, “Histone deacetylase inhibitors” (BIOMARIN PHARMACEUTICAL INC., priority 2015, dated 2019).

The structures appear in SMILES notation. Counter-ions that a name gives are not always drawn. Bounds are passed on as bounds.

The first assay has as its system Frataxin (FXN) mRNA. As to the kind of experiment: Effect of HDAC inhibitors on frataxin (FXN) mRNA expression, qRT-PCR in compound-treated iPSC derived neuronal cells. Format: cell-based. Particulars: iPSC, 24 h, compound concentration of 0.625 μM, 24 h incubation, read-out: FXN mRNA fold induction. The method, then:
Effect of HDAC Inhibitors on Frataxin (FXN) mRNA Expression
Method: mRNA quantification of compound-treated iPSC derived neuronal cells Neuronal stem cells were cultured in Neurobasal A medium (Life technologies #10888022) supplemented with N2, B27 (Life technologies #17502-048 and #17504-044), L-glutamine (Life technologies #25030081), supplemented with 20 ng/ml EGF (R&D Systems #236-EG) and 20 ng/ml bFGF (BioPioneer # HRP-0011). Neuronal differentiation was initiated by removing growth factors and culturing cells in Neurobasal A with N2 and B27. Cells were allowed to differentiate for 16 days. HDAC inhibitory compound was then added and incubate for 24 h. RNA isolation was performed using the RNeasy Plus mini kit (QIAgen #74134) using a QIAcube instrument per manufacturer's instructions. qRT-PCR was performed using qScript One-Step SYBR Green qRT-PCR Kit (Quanta Biosciences 170-8893BR) with the following conditions: 20 minutes at 50° C., 5 minutes at 95° C., and then 40 cycles of 20 seconds at 95° C., 20 seconds at 55° C., 30 seconds at 72° C. The primer sequences to detect expression of FXN were: 5′-[…]-3′ and 5′-[…]-3′.
The data for the following compounds, for FXN mRNA fold induction at a compound concentration of 0.625 μM are shown in Table 1, where A<1, 1<B<2, 2<C<3, 3<D<5, E>5.
Take `CC(C)CN1CCC(Nc2ccc(C(=O)Nc3ccccc3N)cc2)CC1` [Compound 112, N-(2-aminophenyl)-4-((1-isobutylpiperidin-4-yl)amino)benzamide trihydrochloride]: the fold induction at 0.625 µM fell in the range of 1 to 2. Turning to `Nc1ccccc1NC(=O)c1ccc(OC2CCN(CC3CC3)CC2)cc1` [Compound 1, N-(2-aminophenyl)-4-((1-(cyclopropylmethyl)piperidin-4-yl)oxy)benzamide], the fold induction at 0.625 µM lay within 1 to 2. The same measure, in the same setting: the figure for `CC(C)(C)CN1CC[C@@H](Oc2ccc(C(=O)Nc3ccccc3N)cc2)C1` [Compound 61, (R)-N-(2-aminophenyl)-4-((1-neopentylpyrrolidin-3-yl)oxy)benzamide] is 1 to 2. With `Nc1ccccc1NC(=O)c1ccc(NC2CNC2)cc1` [Compound 86, N-(2-aminophenyl)-4-(azetidin-3-ylamino)benzamide trihydrochloride], the fold induction at 0.625 µM is 2 to 3.

Take `Nc1ccccc1NC(=O)c1ccc(OC2CCCN(CC3CC3)CC2)cc1` (stereo not drawn) [Compound 38, N-(2-aminophenyl)-4-((1-(cyclopropylmethyl)azepan-4-yl)oxy)benzamide dihydrochloride]: the fold induction at 0.625 µM is 2 to 3. As to `CN1CCC(Nc2ccc(C(=O)Nc3ccccc3N)cc2)CC1` [Compound 111, N-(2-aminophenyl)-4-((1-methylpiperidin-4-yl)amino)benzamide], the fold induction at 0.625 µM lay in the range of 1 to 2.

Turning to `Nc1ccccc1NC(=O)c1ccc(NC2CN(CC3CCCCC3)C2)cc1` [Compound 93, N-(2-aminophenyl)-4-((1-(cyclohexylmethyl)azetidin-3-yl)amino)benzamide], the fold induction at 0.625 µM lay in the range of 2 to 3. With `Nc1ccccc1NC(=O)c1ccc(NC2CCCN(CC3CCCCC3)CC2)cc1` (stereo not drawn) [Compound 85, N-(2-aminophenyl)-4-((1-(cyclohexylmethyl)azepan-4-yl)amino)benzamide], the fold induction at 0.625 µM is 2 to 3. On the same count and under the same terms, the result for `CC(C)(O)CN1CCCC(Nc2ccc(C(=O)Nc3ccccc3N)cc2)CC1` (stereo not drawn) [Compound 81, N-(2-aminophenyl)-4-((1-(2-hydroxy-2-methylpropyl)azepan-4-yl)amino)benzamide trihydrochloride] reads 1 to 2. Take `CC(C)CN1CC(Nc2ccc(C(=O)Nc3ccccc3N)cc2)C1` [Compound 88, N-(2-aminophenyl)-4-((1-isobutylazetidin-3-yl)amino)benzamide trihydrochloride]: the fold induction at 0.625 µM was 1 to 2. Still for that read-out and setting: the figure for `Nc1ccccc1NC(=O)c1ccc(OC2CCCN(C3CC3)CC2)cc1` (stereo not drawn) [Compound 123, N-(2-aminophenyl)-4-((1-cyclopropylazepan-4-yl)oxy)benzamide benzamide dihydrochloride] is 1 to 2; for `Nc1ccccc1NC(=O)c1ccc(OC2CCCNCC2)cc1` (stereo not drawn) [Compound 33, N-(2-aminophenyl)-4-(azepan-4-yloxy)benzamide hydrochloride] it is 2 to 3; for `Nc1ccccc1NC(=O)c1ccc(NC2CCN(CC3CC3)CC2)cc1` [Compound 3, N-(2-aminophenyl)-4-((1-(cyclopropylmethyl)piperidin-4-yl)amino)benzamide] it is 1 to 2. On to `Nc1ccccc1NC(=O)c1ccc(NC2CCCN(CC3CC3)CC2)cc1` (stereo not drawn) [Compound 83, N-(2-aminophenyl)-4-((1-(cyclopropylmethyl)azepan-4-yl)amino)benzamide trihydrochloride], for which the fold induction at 0.625 µM is 2 to 3.

In the case of `Nc1ccccc1NC(=O)c1ccc(N[C@@H]2CCCN(CC3CCCCC3)CC2)cc1` (single isomer, unassigned) [Compound 85A], the fold induction at 0.625 µM lay within 2 to 3. For the molecule `CN1CC(Nc2ccc(C(=O)Nc3ccccc3N)cc2)C1` [Compound 87, N-(2-aminophenyl)-4-((1-methylazetidin-3-yl)amino)benzamide tris(2,2,2-trifluoroacetate)], the fold induction at 0.625 µM lay within 2 to 3. Regarding `CC1(CN2CC[C@@H](Oc3ccc(C(=O)Nc4ccccc4N)cc3)C2)CC1` [Compound 63, (R)-N-(2-aminophenyl)-4-((1-((1-methylcyclopropyl)methyl)pyrrolidin-3-yl)oxy)benzamide dihydrochloride], the fold induction at 0.625 µM lay within 2 to 3. For `CC(C)(O)CN1CC(Nc2ccc(C(=O)Nc3ccccc3N)cc2)C1` [Compound 89, N-(2-aminophenyl)-4-((1-(2-hydroxy-2-methylpropyl)azetidin-3-yl)amino)benzamide], the fold induction at 0.625 µM lay within 1 to 2.

As to `Nc1ccccc1NC(=O)c1ccc(NC2CCN(CC34CC5CC(CC(C5)C3)C4)CC2)cc1` [Compound 142, 4-((1-(((3r,5r,7r)-adamantan-1-yl)methyl)piperidin-4-yl)amino)-N-(2-aminophenyl)benzamide trihydrochloride], the fold induction at 0.625 µM fell in the range of 2 to 3. As to `CN1CC(Oc2ccc(C(=O)Nc3ccccc3N)cc2)C1` [Compound 42, N-(2-aminophenyl)-4-((1-methylazetidin-3-yl)oxy)benzamide], the fold induction at 0.625 µM was 1 to 2. Same read-out and setting: the result for `Nc1ccccc1NC(=O)c1ccc(N[C@H]2CCCN(CC3CCCCC3)CC2)cc1` (single isomer, unassigned) [Compound 85B] reads 2 to 3; that for `Nc1ccccc1NC(=O)c1ccc(NC2CCN(C3CC3)CC2)cc1` [Compound 140, N-(2-aminophenyl)-4-((1-cyclopropylpiperidin-4-yl)amino)benzamide trihydrochloride trihydrochloride], 2 to 3; that for `Nc1ccccc1NC(=O)c1ccc(OC2CNC2)cc1` [Compound 41, N-(2-aminophenyl)-4-(azetidin-3-yloxy)benzamide hydrochloride], 1 to 2. Consider `Nc1ccccc1NC(=O)c1ccc(NC2CN(C3COC3)C2)cc1` [Compound 135, N-(2-aminophenyl)-4-((1-(oxetan-3-yl)azetidin-3-yl)amino)benzamide], for which the fold induction at 0.625 µM lay within 1 to 2. Take `Nc1ccccc1NC(=O)c1ccc(N[C@H]2CCN(CC3CC3)C2)cc1` [Compound 99, (S)-N-(2-aminophenyl)-4-((1-(cyclopropylmethyl)pyrrolidin-3-yl)amino)benzamide trihydrochloride]: the fold induction at 0.625 µM lay within 2 to 3. In the case of `Nc1ccccc1NC(=O)c1ccc(O[C@H]2CCCN(CC3CC3)CC2)cc1` [Compound 38A, (S)-N-(2-aminophenyl)-4-((1-(cyclopropylmethyl)azepan-4-yl)oxy)benzamide], the fold induction at 0.625 µM was below 1. In the case of `Nc1ccccc1NC(=O)c1ccc(N[C@@H]2CCN(CC3CCCCC3)C2)cc1` [Compound 109, (R)-N-(2-aminophenyl)-4-((1-(cyclohexylmethyl)pyrrolidin-3-yl)amino)benzamide], the fold induction at 0.625 µM fell in the range of 2 to 3. Consider `Nc1ccccc1NC(=O)c1ccc(N[C@@H]2CCN(C3COC3)C2)cc1` [Compound 139, (R)-N-(2-aminophenyl)-4-((1-(oxetan-3-yl)pyrrolidin-3-yl)amino)benzamide tris(2,2,2-trifluoroacetate)], for which the fold induction at 0.625 µM lay within 1 to 2. Take `CC(C)(O)CN1CCCC(Oc2ccc(C(=O)Nc3ccccc3N)cc2)CC1` (stereo not drawn) [Compound 36, N-(2-aminophenyl)-4-((1-(2-hydroxy-2-methylpropyl)azepan-4-yl)oxy)benzamide dihydrochloride]: the fold induction at 0.625 µM was 1 to 2. `Nc1ccccc1NC(=O)c1ccc(O[C@H]2CCN(C3COC3)C2)cc1` [Compound 128, (S)-N-(2-aminophenyl)-4-((1-(oxetan-3-yl)pyrrolidin-3-yl)oxy)benzamide]: the fold induction at 0.625 µM lay in the range of 1 to 2. For the molecule `Nc1ccccc1NC(=O)c1ccc(OC2CCN(CC3CCCCC3)CC2)cc1` [Compound 69, N-(2-aminophenyl)-4-((1-(cyclohexylmethyl)piperidin-4-yl)oxy)benzamide dihydrochloride], the fold induction at 0.625 µM is 1 to 2. Take `Nc1ccccc1NC(=O)c1ccc(OC2CCN(C3CC3)CC2)cc1` [Compound 131, N-(2-aminophenyl)-4-((1-cyclopropylpiperidin-4-yl)oxy)benzamide dihydrochloride]: the fold induction at 0.625 µM lay within 1 to 2. On the same count and under the same terms, the figure for `CC(C)(C)CN1CC(Oc2ccc(C(=O)Nc3ccccc3N)cc2)C1` [Compound 45, dihydrochloride] is 1 to 2; for `CC(C)(O)CN1CC[C@H](Nc2ccc(C(=O)Nc3ccccc3N)cc2)C1` [Compound 97, (S)-N-(2-aminophenyl)-4-((1-(2-hydroxy-2-methylpropyl)pyrrolidin-3-yl)amino)benzamide] it is 1 to 2; for `Nc1ccccc1NC(=O)c1ccc(O[C@H]2CCN(CC3CC3)C2)cc1` [Compound 54, (S)-N-(2-aminophenyl)-4-((1-(cyclopropylmethyl)pyrrolidin-3-yl)oxy)benzamide dihydrochloride] it is 1 to 2.

The assay is the same for the next values; noted with them: iPSC, 24 h, read-out: FXN mRNA fold induction, compound concentration of 0.625 μM, 24 h incubation.
Turning to `CCN(c1ccc(C(=O)Nc2ccccc2N)cc1)C1CCN(CC(C)(C)O)CC1` [Compound 27, N-(2-aminophenyl)-4-(ethyl(1-(2-hydroxy-2-methylpropyl)piperidin-4-yl)amino)benzamide Trihydrochloride], the fold induction at 0.625 µM fell in the range of 2 to 3.
